According to patent US8124032B2, “Microfluidic device and method of using same” (priority 2004, dated 2012):

System: single yeast cell (intracellular carboxylesterase, efflux process)
Test: Single-cell FDA metabolism (influx/hydrolysis/efflux), curve fitting to enzymatic model
Assay type: cell-based, Sacchomyces cereviase
Source text: In one of the embodiments of the invention, to study a model of a yeast metabolic process using the microfluidic device of the invention, the inventors selected a cell-permeable fluorogenic substrate, fluorescein diacetate (FDA), which is normally used to determine cell viability^42. After influx of FDA into a yeast cell, the intracellular enzyme carboxylesterase^43 hydrolyzes FDA to fluorescein, which will then be excreted from the cell (through efflux).
To examine the cells in an embodiment of the microfluidic device, the device was placed on the translation stage of an inverted microscope and simultaneous optical observation and fluorescent measurement were carried out. To carry out fluorescent intensity calibration in the microfluidic device, polystyrene beads (6 μm diameter, InSpeck™ Green, Molecular Probes) were used. Three-dimensional liquid flow control was accomplished by either electric or fluid potential.
With electric potential control, only low-conducting liquids, such as G7, H4 could be delivered to the cells (cell 3, 4, 5). The two buffers were G7 (28.5 mM HEPES, 256 mM D-glucose, pH=7.3) and H4 (285 mM HEPES, pH=4.3). 12 μM FDA was used, where appropriate. With fluid potential (<1 mm) control, highly conducting liquids such as YPD, NaCl, KCl, EDTA could also be used.
FIG. 16I depicts the schematic diagram of a yeast cell with a daughter bud, showing the relationship between the concentrations of extracellular FDA (A), intracellular FDA (B) and fluorescein (C) as a function of time (t). The kinetic model can be described by several equations. Equation (1) is the material balance of FDA (B) in the cell. Equation (2) is the material balance of fluorescein (C) in the cell. Equations (1) and (2) were derived from first principles as discussed below.
[formula] The notations are A: extracellular FDA (μM); B: intracellular FDA (μM); C: intracellular fluorescein (μM); S: cell surface area (μm^2) and V: cell volume (μm^3), as calculated from the diameter (μm) of the cell (D1) and its bud (D2); kb: transport coefficient (μm s^−1); Vm (μM s^−1) and Km (μM): Michaelis-Menten kinetic parameters for the carboxylesterase; Ve (μM μm s^−1) and Ke (μM): Michaelis-Menten kinetic parameters for the efflux process.
[formula] Equation (3) represents the increasing rate of the carboxylesterase activity as indicated by the Michaelis-Menten parameter Vm, where k is the rate constant (μM s^−2). Derivation for Equation (1): Material Balance of FDA in the Cell
Here, T0, T1 and T2 are the time at which influx, hydrolysis and efflux start, respectively.
In the self-control mode, when influx is not allowed, kb=0. […] During hydrolysis (T1 to T2), there is no influx and efflux, i.e. kb=0, Vm>0, and Ve=0. Finally, during efflux (after T2), there is no influx and hydrolysis, i.e. kb=0, Vm=0, and Ve>0. In the lost-control mode, kb>0, Vm>0, and Ve>0. In the “death” mode, kb=0, Vm=0, and Ve=0. In this case, the cell appears dead when there is no change in the concentration of cellular fluorescein.
Curve-fitting experiments were also carried out for two other single yeast cells under various stimuli, see FIG. 17.

[1] = cell 3, T0 2140 s, self-control mode
[2] = cell 4, T0 2560 s, self-control mode
[3] = cell 4, T0 4950 s, self-control mode
[4] = cell 4, T0 6590 s, self-control mode
[5] = cell 4, T0 8627 s, lost-control mode
[6] = cell 5, T0 208 s, self-control mode
[7] = cell 5, T0 1030 s, self-control mode
[8] = cell 5, T0 2026 s, self-control mode
[9] = cell 5, T0 3300 s, self-control mode
[10] = cell 5, T0 5600 s, lost-control mode
[11] = cell ‡ (another single yeast cell similar to cell 3), T0 2200 s, self-control mode

## CC(=O)Oc1ccc2c(c1)Oc1cc(OC(C)=O)ccc1C21OC(=O)c2ccccc21 [FDA, fluorescein diacetate]
[1]
  Vm0 (initial value of Vm, carboxylesterase): 0.0012 µM/s
  k (rate constant of increase of Vm): 4 10^−6 μM s^−2
[2]
  Vm0 (initial value of Vm, carboxylesterase): 0.002 µM/s
  k (rate constant of increase of Vm): 25 10^−6 μM s^−2
[3]
  Vm0 (initial value of Vm, carboxylesterase): 0.01 µM/s
  k (rate constant of increase of Vm): 25 10^−6 μM s^−2
[4]
  Vm0 (initial value of Vm, carboxylesterase): 0.04 µM/s
  k (rate constant of increase of Vm): 0 10^−6 μM s^−2
[5]
  Vm0 (initial value of Vm, carboxylesterase): 0.009 µM/s
  k (rate constant of increase of Vm): 0 10^−6 μM s^−2
[6]
  Vm0 (initial value of Vm, carboxylesterase): 0.02 µM/s
  k (rate constant of increase of Vm): 0 10^−6 μM s^−2
[7]
  Vm0 (initial value of Vm, carboxylesterase): 0.005 µM/s
  k (rate constant of increase of Vm): 0 10^−6 μM s^−2
[8]
  Vm0 (initial value of Vm, carboxylesterase): 0.0018 µM/s
  k (rate constant of increase of Vm): 2 10^−6 μM s^−2
[9]
  Vm0 (initial value of Vm, carboxylesterase): 0.004 µM/s
  k (rate constant of increase of Vm): 15 10^−6 μM s^−2
[10]
  Vm0 (initial value of Vm, carboxylesterase): 0.015 µM/s
  k (rate constant of increase of Vm): 0 10^−6 μM s^−2
[11]
  Vm0 (initial value of Vm, carboxylesterase): 0.007 µM/s
  k (rate constant of increase of Vm): 4 10^−6 μM s^−2
